Results published in ChEMBL document CHEMBL6127052, “Discovery of membrane-targeting amphiphilic honokiol derivatives containing an oxazolethione moiety to combat methicillin-resistant Staphylococcus aureus (MRSA) infections” (Eur J Med Chem, 2024).
Values after ≈ are worked out from the molar mass of the structure shown.

How the values were obtained:
Escherichia coli = assay: Antibacterial activity against Escherichia coli ATCC 25922 by CLSI based micro-broth dilution method; format: functional
Staphylococcus aureus [1] = assay: Antibacterial activity against methicillin-resistant Staphylococcus aureus clinical isolate M14 by CLSI based micro-broth dilution method; format: functional
Staphylococcus aureus [2] = assay: Antibacterial activity against methicillin-resistant Staphylococcus aureus clinical isolate M22 by CLSI based micro-broth dilution method; format: functional
Staphylococcus aureus [3] = assay: Antibacterial activity against Staphylococcus aureus ATCC 29213 by CLSI based micro-broth dilution method; format: functional
Staphylococcus aureus [4] = assay: Antibacterial activity against methicillin-resistant Staphylococcus aureus clinical isolate M16 by CLSI based micro-broth dilution method; format: functional
Staphylococcus aureus [5] = assay: Antibacterial activity against methicillin-resistant Staphylococcus aureus clinical isolate M21 by CLSI based micro-broth dilution method; format: functional
Staphylococcus aureus [6] = assay: Antibacterial activity against methicillin-resistant Staphylococcus aureus clinical isolate M23 by CLSI based micro-broth dilution method; format: functional
Staphylococcus aureus [7] = assay: Antibacterial activity against methicillin-resistant Staphylococcus aureus clinical isolate M17 by CLSI based micro-broth dilution method; format: functional
Staphylococcus aureus [8] = assay: Antibacterial activity against methicillin-resistant Staphylococcus aureus N315 by CLSI based micro-broth dilution method; format: functional
Staphylococcus aureus [9] = assay: Antibacterial activity against methicillin-resistant Staphylococcus aureus clinical isolate M12 by CLSI based micro-broth dilution method; format: functional
Staphylococcus aureus [10] = assay: Antibacterial activity against methicillin-resistant Staphylococcus aureus clinical isolate M11 by CLSI based micro-broth dilution method; format: functional
Staphylococcus aureus [11] = assay: Antibacterial activity against methicillin-resistant Staphylococcus aureus clinical isolate M20 by CLSI based micro-broth dilution method; format: functional
[12] = Hemolytic activity in sheep erythrocytes incubated for 1 hr by absorbance based assay; format: toxicity, cell-based, Ovis aries, Erythrocyte
[13] = Selectivity index, ratio of HC50 for hemolytic activity in sheep erythrocytes to MIC for antibacterial activity against Staphylococcus aureus ATCC 29213; format: toxicity, cell-based, RBC
Staphylococcus aureus [14] = assay: Antibacterial activity against methicillin-resistant Staphylococcus aureus clinical isolate M13 by CLSI based micro-broth dilution method; format: functional

SMILES	MIC (Escherichia coli) [µg/mL]	MIC (Staphylococcus aureus [1]) [µg/mL]	MIC (Staphylococcus aureus [2]) [µg/mL]	MIC (Staphylococcus aureus [3]) [µg/mL]	MIC (Staphylococcus aureus [4]) [µg/mL]	MIC (Staphylococcus aureus [5]) [µg/mL]	MIC (Staphylococcus aureus [6]) [µg/mL]	MIC (Staphylococcus aureus [7]) [µg/mL]	MIC (Staphylococcus aureus [8]) [µg/mL]	MIC (Staphylococcus aureus [9]) [µg/mL]	MIC (Staphylococcus aureus [10]) [µg/mL]	MIC (Staphylococcus aureus [11]) [µg/mL]	HC50 at 1 h [12] [µg/mL]	selectivity ratio [13]	MIC (Staphylococcus aureus [14]) [µg/mL]
C[C@@H](O)[C@H]1C(=O)N2C(C(=O)O)=C(S[C@@H]3CN[C@H](C(=O)N(C)C)C3)[C@H](C)[C@H]12 [MEROPENEM]	0.063 (≈ 0.164 µM)														
C=CCc1cc(-c2ccc(OCCC[N+](C)(C)CC(=O)NCCCC)c(CC=C)c2)c2oc(=S)n(Cc3cccc(OC)c3)c2c1.[Br-]	> 128	4	16	8	4	4	8	8	8	4	4	4	> 160	> 20	8
C=CCc1cc(-c2ccc(OCCC[N+](C)(C)CC(=O)NCCCC)c(CC=C)c2)c2oc(=S)n(Cc3ccccc3Cl)c2c1.[Br-]	> 128	16	8	4	4	4	4	16	16	4	4	8	965	241	8
C=CCc1cc(-c2ccc(OCCC[N+](C)(C)CC(=O)NCCCC)c(CC=C)c2)c2oc(=S)n(Cc3ccc(Br)cc3)c2c1.[Br-]	> 128	16	32	32	16	16	16	16	32	16	16	16	489	15.3	16
C=CCc1cc(-c2ccc(OCCC[N+](C)(C)CC(=O)NCCCC)c(CC=C)c2)c2oc(=S)n(Cc3c(Cl)cccc3Cl)c2c1.[Br-]	> 128	16	32	16	8	8	8	16	32	4	8	8	400	25	16
C=CCc1cc(-c2ccc(OCCC[N+](C)(C)CC(=O)NCCCC)c(CC=C)c2)c2oc(=S)n(Cc3ccc(C(F)(F)F)cc3)c2c1.[Br-]	> 128	8	16	8	8	8	8	16	16	4	4	4	> 160	> 20	4
C=CCc1cc(-c2ccc(OCCC[N+](C)(C)CC(=O)NCCCC)c(CC=C)c2)c2oc(=S)n(Cc3ccc(Cl)cc3F)c2c1.[Br-]	> 128	> 128	> 128	> 128	> 128	> 128	> 128	> 128	128	> 128	> 128	> 128	> 160	1.3	> 128
C=CCc1cc(-c2ccc(OCCC[N+](C)(C)CC(=O)NCCCC)c(CC=C)c2)c2oc(=S)n(Cc3ccc(Cl)cc3)c2c1.[Br-]	> 128	16	8	16	8	4	16	8	32	4	4	4	519	32.5	8
C=CCc1cc(-c2ccc(OCCC[N+](C)(C)CC(=O)NCCCC)c(CC=C)c2)c2oc(=S)n(Cc3ccc(Cl)c(Br)c3)c2c1.[Br-]	> 128	> 128	128	> 128	> 128	128	> 128	128	> 128	> 128	128	> 128	> 160	1.3	> 128
C=CCc1cc(-c2ccc(OCCC[N+](C)(C)CC(=O)NCCCC)c(CC=C)c2)c2oc(=S)n(Cc3ccc(F)cc3Cl)c2c1.[Br-]	> 128	16	64	32	16	16	32	64	32	32	16	16	> 160	> 5	64
C=CCc1cc(-c2ccc(OCCC[N+](C)(C)CC(=O)NCCCC)c(CC=C)c2)c2oc(=S)n(Cc3cc(Br)ccc3F)c2c1.[Br-]	> 128	8	16	16	8	8	16	32	16	8	8	8	> 160	> 10	16
C=CCc1cc(-c2ccc(OCCC[N+](C)(C)CC(=O)NCCCC)c(CC=C)c2)c2oc(=S)n(Cc3ccc(Cl)c(F)c3)c2c1.[Br-]	> 128	16	64	32	8	8	8	128	32	8	8	8	> 160	> 5	16
C=CCc1cc(-c2ccc(OCCC[N+](C)(C)CC(=O)NCCCC)c(CC=C)c2)c2oc(=S)n(Cc3cccc(Br)c3)c2c1.[Br-]	> 128	8	32	16	8	16	16	32	16	8	8	8	> 160	> 10	8
C=CCc1cc(-c2ccc(OCCC[N+](C)(C)CC(=O)NCCCC)c(CC=C)c2)c2oc(=S)n(Cc3ccc(OC)cc3)c2c1.[Br-]	> 128	2	8	32	4	2	8	16	32	2	2	2	57.4	1.8	4
C=CCc1cc(-c2ccc(OCCC[N+](C)(C)CC(=O)NCCCC)c(CC=C)c2)c2oc(=S)n(Cc3ccccc3Br)c2c1.[Br-]	> 128	128	32	128	64	32	64	64	128	16	64	64	> 160	> 1.3	128
C=CCc1cc(-c2ccc(OCCC[N+](C)(C)CC(=O)NCCCC)c(CC=C)c2)c2oc(=S)n(Cc3cc(F)c(F)c(F)c3)c2c1.[Br-]	> 128	2	4	2	2	2	2	4	16	2	2	2	52.8		4
C=CCc1cc(-c2ccc(OCCC[N+](C)(C)CC(=O)NCCCC)c(CC=C)c2)c2oc(=S)n(Cc3ccc(Cl)cc3Cl)c2c1.[Br-]	> 128	> 128	> 128	> 128	> 128	> 128	> 128	> 128	128	> 128	> 128	> 128	> 160	1.3	> 128
C=CCc1cc(-c2ccc(OCCC[N+](C)(C)CC(=O)NCCCC)c(CC=C)c2)c2oc(=S)n(Cc3cc(Cl)cc(Cl)c3)c2c1.[Br-]	> 128	32	32	64	32	16	32	32	64	8	32	16	31.3	0.5	32
C=CCc1ccc(O)c(-c2ccc(O)c(CC=C)c2)c1 [HONOKIOL]	> 128	16 (≈ 60.1 µM)	16 (≈ 60.1 µM)	32 (≈ 120 µM)	16 (≈ 60.1 µM)	16 (≈ 60.1 µM)	16 (≈ 60.1 µM)	16 (≈ 60.1 µM)	8 (≈ 30 µM)	8 (≈ 30 µM)	16 (≈ 60.1 µM)	8 (≈ 30 µM)	> 80	> 2.5	16 (≈ 60.1 µM)
